Results published in patent publication US11472787B2, “Docosahexaenoic acid endocannabinoid epoxide derivative compositions” (The Board of Trustees of the University of Illinois, priority 2017, dated 2022).

Legend:
[1] = tested on: HOS cells; assay: Annexin V binding apoptosis assay in HOS cells; format: cell-based; conditions: 12.5 μM, 24 hours
Method: (§1) All three amino-modified derivatives of 10,11-EDP were tested for their apoptotic activity using a BD biosciences Annexin V binding assay for apoptosis at 12.5 μM concentration (FIG. 2). Cells were grown and maintained in Dulbecco's modified Eagle's medium supplemented with 10% fetal bovine serum, 1% streptomycin and penicillin at 37° C. in a 5% CO2 humidified air atmosphere in 12 well plate to 90% confluency and then appropriate amount of compound or control was added to the well. The cells were incubated for 24 hours and then prepared for apoptosis assays as indicated in BD biosciences Annexin V binding assay kit instructions and analyzed by BD Accuri C6 flow cytometer and FCS flow software. […] However, their effects were not consistent in trend among the three cell lines. The cyclopropyl analog seemed to have the highest pro-apoptotic potential among the three within error limits. […] In 143B cells the increase in pro-apoptotic potential was only 18.8±0.3% for the iso-propyl derivative as compared to 25.7±0.4% for the n-propyl derivative.

[2] = tested on: MG63 cells; assay: Annexin V binding apoptosis assay in MG63 cells; format: cell-based; conditions: 12.5 μM, 24 hours
Method: as §1

[3] = tested on: 143B cells; assay: Annexin V binding apoptosis assay in 143B cells; format: cell-based; conditions: 12.5 μM, 24 hours
Method: as §1

[4] = tested on: HOS cells; assay: Scratch (wound migration) assay in HOS cells; format: cell-based; conditions: 5 μM; for restriction of wound migration as compared to control: over 10 hours
Method: (§2) A scratch assay was performed to analyze the anti-migratory properties of the three derivatives (FIGS. 3A-3C and 7). Cells were grown and maintained in Dulbecco's modified Eagle's medium supplemented with 10% fetal bovine serum, 1% streptomycin and penicillin at 37° C. in a 5% CO2 humidified air atmosphere in a 12 well plate to a confluent monolayer and then a scratch was made across the center and images were taken. The media was changed and appropriate compounds and controls were added and images of the scratch were taken every 2 hours. The images were processed by ImageJ software. In HOS cells (FIG. 3A), all 10,11-EDP derivatives restricted wound migration at 5 μM concentration.

[5] = tested on: 143B cells; assay: Scratch (wound migration) assay in 143B cells; format: cell-based
Method: as §2

[6] = tested on: MG63 cells; assay: Scratch (wound migration) assay in MG63 cells; format: cell-based; conditions: MG63 cell line
Method: as §2

[7] = biological target: CNR1 (CB1) (Homo sapiens (Human), UniProt P21554); assay: Presto-Tango β-arrestin recruitment assay, CNR1; format: cell-based; conditions: HTLA cells
Method: (§3) Binding of the parent compounds to putative receptors CNR1 and CNR2 (cannabinoid receptors 1& 2) was measured by a Presto-Tango assay (FIG. 5A and FIG. 5B). […] HTLA were received from the Roth Lab and CNR1 and CNR2 plasmids were purchased from Addgene. HTLA cells were maintained in DMEM with 10% FBS containing 2 μg/mL of puromycin and 100 μg/mL of hygromycin B at 37° C. in a 5% CO2 humidified air atmosphere and grown to 80-90% confluency. Cells were then seeded at 20,000 cells per 100 uL into poly-L-lysine coated 96-well plate. After 18-24 hrs, cells were transfected with CNR2 (0.1 ug/well) using Calfectin as the transfection reagent. Transfection media was replaced after 12-18 hours with serum-media and proceeded for ˜36 hours. On the day of the assay, serum-media was replaced with serum-free media for 4 hours, then the compounds were added in a log dose manner in DMSO to a final well volume of 200 uL and incubated overnight. The next day, media was removed and 20 μL of Bright-Glo solution was added to the cells and incubated for 20 min at room temperature in the dark and measured for luminescence. Relative luminescence units (RLU) values were normalized to % receptor response, plotted as a function of compound concentration and analyzed using “DoseResp” in OriginPro.

[8] = biological target: CNR2 (CB2) (Homo sapiens (Human), UniProt P34972); assay: Presto-Tango β-arrestin recruitment assay, CNR2; format: cell-based; conditions: HTLA cells
Method: as §3

[9] = biological target: Fatty acid amide hydrolase (FAAH) (Sus scrofa (Pig), UniProt Q9TUI8); assay: Susceptibility to FAAH hydrolysis in pig brain membrane preparations; conditions: pig forebrain membranes, amide at 20 μM, 40 min
Method: Fatty acid amide hydrolase (FAAH) is a ubiquitously expressed protein in various mammals and the sequence of the protein has shown to be highly conserved in humans, mouse and pig. […] The preparation of pig forebrain membranes was achieved using dounce homogenization in buffer (50 mM Tris pH 7.4, 1 mM EDTA and 3 mM MgCl2) and membrane pelleting as previously described (Hillard, C. J.; Wilkison, D. M.; Edgemond, W. S.; Campbell, W. B. Characterization of the kinetics and distribution of N-arachidonylethanolamine (anandamide) hydrolysis by rat brain. Biochim Biophys Acta 1995, 1257, 249-56). Incubations contained 5 μg forebrain protein in a 0.5 mL reaction containing 50 mM Tris (pH 7.4), 1 mM EDTA, 3 mM MgCl2, and amide at 20 μM. At 40 min reactions were quenched with methanol containing 1 mM PMSF and centrifuged to pellet protein (10,000 g×10 min). The supernatant was collected and analyzed via LC-MS/MS as outlined below.
The products of hydrolysis were measured by LC-MS/MS as indicated in materials and methods section.

[10] = tested on: HUVEC cells; assay: Endothelial tube formation (angiogenesis) assay on matrigel; format: cell-based; conditions: 0.5 μM or 1 μM compound, 5 hours
From the text: Increased angiogenesis is one of the hallmarks of cancer. The development of neo-vascularization is key for the adequate supply of nutrients and oxygen to the site of metastasis. Endothelial tube formation on matrix has been established as a cellular model for angiogenesis. Endothelial HUVEC cells form a networks of tubes when plated on matrigel and the tube formation in presence and absence of treatment can be quantified as a measure of restricted angiogenic potential.
Angiogenesis in endothelial HUVEC cells was measured using abcam angiogenesis kit (ab204726). Briefly, HUVEC cells at passage 2 (p=2) were grown to 80% confluency. The matrigel provided was thawed overnight and 50 μL was put into each well of a 96 well plate that had been chilled overnight in a −20° C. freezer. The plate was rocked slightly and then allowed to incubate at 37° C. for 1 hour. 15,000 HUVEC cells were then plated into the wells and were treated with vehicle control or 0.5 μM or 1 μM compound. A no matrix control and a control with vinblastine (inhibitor of angiogenesis) was also performed. All wells were performed in duplicates. The plates were then incubated for 5 hours at 37° C. […] The wells were imaged using a fluorescent microscope and analyzed using ImageJ with Angiogenesis Analyzer Plugin. […] The tube formation was assessed by Image J analysis.

[11] = tested on: BV-2 microglial cells; assay: Anti-inflammatory assay in LPS-stimulated microglial cells; format: cell-based, mouse; conditions: BV-2 cells, 4 hours pre-incubation, 25 ng/mL LPS
Method: The anti-inflammatory effect of parent compounds was tested by measuring nitrite production in Bv2 microglial cells and the reduction in pro-inflammatory cytokine IL-6 (FIG. 4). Experiments were performed with mouse BV-2 microglial cells. Cells were grown and maintained in Dulbecco's modified Eagle's medium supplemented with 10% fetal bovine serum, 1% streptomycin and penicillin at 37° C. in a 5% CO2 humidified air atmosphere. BV-2 cells were seeded in 24-well plates (200K cells/mL) and grown to 80-90% confluency. For regioisomer screening and dose response studies, media was replaced with serum-free media and the cells were pre-incubated with the regioisomers for 4 hours prior to stimulation with 25 ng/mL LPS (Sigma-Aldrich, USA). Production of nitric oxide (NO) and cell toxicity and IL-6 production were measured.

Chain of Fatty acid amide hydrolase (FAAH) (Q9TUI8 whole entry): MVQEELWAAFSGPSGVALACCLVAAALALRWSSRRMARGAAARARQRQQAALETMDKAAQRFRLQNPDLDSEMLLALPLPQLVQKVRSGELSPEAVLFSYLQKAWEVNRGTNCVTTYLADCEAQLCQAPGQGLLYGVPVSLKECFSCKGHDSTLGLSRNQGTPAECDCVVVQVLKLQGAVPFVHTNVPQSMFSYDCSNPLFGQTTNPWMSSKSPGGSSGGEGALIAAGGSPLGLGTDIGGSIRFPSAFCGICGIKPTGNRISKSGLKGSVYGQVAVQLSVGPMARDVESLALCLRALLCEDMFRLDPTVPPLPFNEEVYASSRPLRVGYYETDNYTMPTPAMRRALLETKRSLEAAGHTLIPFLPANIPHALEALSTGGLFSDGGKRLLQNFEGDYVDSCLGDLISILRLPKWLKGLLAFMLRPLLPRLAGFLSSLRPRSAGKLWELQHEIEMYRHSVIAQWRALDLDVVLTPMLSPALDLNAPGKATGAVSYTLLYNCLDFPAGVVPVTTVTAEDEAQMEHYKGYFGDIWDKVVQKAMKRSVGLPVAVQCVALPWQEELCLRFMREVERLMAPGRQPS

SMILES | apoptosis (apoptotic potential) [1] | apoptosis (apoptotic potential) [2] | apoptosis (apoptotic potential) [3] | inhibition of migration more than vehicle control ([4]; 8 and 10 hour time points) | restriction of wound migration as compared to control [4] | restriction in wound migration as compared to the control [5] | restriction in wound healing as compared to the control [6] | EC50 [7] | EC50 [8] | rate of hydrolysis [9] | tube formation (angiogenesis) [10] | IL-6 production [11] | nitrite production [11]
CC/C=C\C/C=C\C/C=C\CC1OC1C/C=C\C/C=C\CCC(=O)NC1CC1 (stereo not shown) [10,11-EDP-CA, (4Z,7Z)—N-Cyclopropyl-9-(3-((2Z,5Z,8Z)-undeca-2,5,8-trien-1-yl)oxiran-2-yl)nona-4,7-dienamide] | 27.19±4.05% | 17.09±4.4% | 21.3±1.9% | 4.5-6 times | most potent | most potent | comparable to 10, 1-EDP-EA | 0.03 nM | 0.46 nM | 5.17±0.06 pmol min^−1 mg protein^−1 |  |  | 
CC/C=C\C/C=C\C/C=C\CC1OC1C/C=C\C/C=C\CCC(=O)NCCO (stereo not shown) [10,11-EDP-EA, reference compound] |  |  |  |  | 1.00-1.44 times | 1-1.9 times | 1-2 times | 0.43 nM | 22.5 nM | 30.0±0.3 pmol min^−1 mg protein^−1 | Prevent Angiogenesis |  | 
CC/C=C\C/C=C\C/C=C\CC1OC1C/C=C\C/C=C\CCC(=O)NC(C)CO (stereo not shown) [10,11-EDP-IA, (4Z,7Z)—N-(1-Hydroxypropan-2-yl)-9-(3-((2Z,5Z,8Z)-undeca-2,5,8-trien-1-yl)oxiran-2-yl)nona-4,7-dienamide] | 20.15±1.75% | 17.48±2.8% | 18.8±0.3% |  | 1-1.75 times | 1-3.9 times | slightly poorer than the control | 0.07 nM | 0.08 nM | 0.99±0.04 pmol min^−1 mg protein^−1 |  |  | 
CC/C=C\C/C=C\C/C=C\CC1OC1C/C=C\C/C=C\CCC(=O)NCCCO (stereo not shown) [10,11-EDP-NA, (4Z,7Z)—N-(3-Hydroxypropyl)-9-(3-((2Z,5Z,8Z)-undeca-2,5,8-trien-1-yl)oxiran-2-yl)nona-4,7-dienamide] | 17.05±1.4% | 15.15±3.28% | 25.7±0.4% |  | 1-1.7 times | 1-1.47 times | slightly poorer than the control | 0.19 nM | 7.3 nM |  |  |  | 
CCC1OC1C/C=C\C/C=C\C/C=C\C/C=C\C/C=C\CCC(=O)NCCO (stereo not shown) [19,20-EDP-EA] |  |  |  |  |  |  |  |  |  | 150 pmol min^−1 mg protein^−1 |  | reduction in 11-6 and nitrite in a dose dependent manner | reduction in 11-6 and nitrite in a dose dependent manner
